# According to article PMC6492180, “Cytome micronucleus assays with a metabolically competent human derived liver cell line (Huh6): A promising approach for routine testing of chemicals?” (Environmental and Molecular Mutagenesis, 2018):
# Like-named read-outs stand apart in the source and are kept apart here. Marks after values point to notes of the source that are not given here.
# Assays:
# [1] = ref IARC (2018); cited from earlier work
# Human lymphocytes = conditions: Human lymphocytes, + S9; ref Katic et al., 2010; cited from earlier work
# Huh6 cells = test system: Huh6 cells
# Procedure, shortened: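 Huh6 cells seeded in RPMI with 4% (or 10%) FBS for 12 hr, then exposed to mutagens for 4, 24 or 48 hr alongside solvent controls; cytocentrifuged, DiffQuick-stained. ≥1,000 binucleated cells scored per culture (≥2,000 per dose) for MN, NBuds, NBs; CBPI recorded. Poisson generalized linear model, p≤0.05.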
# HepG2 = conditions: HepG2; ref Majer et al., 2004; cited from earlier work
# Hep3B = conditions: Hep3B; ref Majer et al., 2004; cited from earlier work
# HepaRG = conditions: HepaRG; ref Le Hegarat et al., 2010; cited from earlier work
# [2] = 10% FBS, 24 hr treatment, 50 µM
# [3] = 10% FBS, 24 hr treatment, 100 µM
compound,measurement,setting,value
"Cn1c(N)nc2ncc(-c3ccccc3)cc21 [PhiP, 2‐Amino‐1‐methyl‐6‐phenylimidazo[4,5‐b]pyridine]",IARC classification,[1],Formation of guanine adducts; activation: CYP1A2 and SULT; detoxification: GSTs; IARC: Group 2B
same,Lowest effective concentration (LOEC) in micronucleus experiments,Human lymphocytes,"2.5 + S9 (Katic et al., 2010) μM"
same,MN effects after 24 hr (or longer) compared with 4 hr treatment (in words),Huh6 cells; 4% FBS,more pronounced effects
same,BN-MN (number of micronucleated cells),"Huh6 cells; 4% FBS, 4hrs, 25 µM",23.5 ± 0.7 ‰
same,Bridges,"Huh6 cells; 4% FBS, 4hrs, 25 µM",0.5 ± 0.7 ‰
same,Buds,"Huh6 cells; 4% FBS, 4hrs, 25 µM",18.0 ± 5.7 ‰
same,CBPI,"Huh6 cells; 4% FBS, 4hrs, 25 µM",1.7 ± 0.1
same,MN (total number of micronuclei),"Huh6 cells; 4% FBS, 4hrs, 25 µM",23.5 ± 0.7 ‰
same,BN-MN (number of micronucleated cells),"Huh6 cells; 4% FBS, 4hrs, 50 µM",22.5 ± 2.1 ‰
same,Bridges,"Huh6 cells; 4% FBS, 4hrs, 50 µM",2.0 ± 1.4 ‰
same,Buds,"Huh6 cells; 4% FBS, 4hrs, 50 µM",19.0 ± 7.1 ‰
same,CBPI,"Huh6 cells; 4% FBS, 4hrs, 50 µM",1.6 ± 0.2
same,MN (total number of micronuclei),"Huh6 cells; 4% FBS, 4hrs, 50 µM",22.5 ± 2.1 ‰
same,BN-MN (number of micronucleated cells),"Huh6 cells; 4% FBS, 4hrs, 100 µM",26 ± 1.4 ‰
same,Bridges,"Huh6 cells; 4% FBS, 4hrs, 100 µM",1.5 ± 0.7 ‰
same,Buds,"Huh6 cells; 4% FBS, 4hrs, 100 µM",23.5 ± 6.4 ‰
same,CBPI,"Huh6 cells; 4% FBS, 4hrs, 100 µM",1.7 ± 0.0
same,MN (total number of micronuclei),"Huh6 cells; 4% FBS, 4hrs, 100 µM",28 ± 1.4 ‰
same,BN-MN (number of micronucleated cells),"Huh6 cells; 4% FBS, 24hrs, 25 µM",17.5 ± 2.1 ‰
same,Bridges,"Huh6 cells; 4% FBS, 24hrs, 25 µM",0.0 ± 0.0 ‰
same,Buds,"Huh6 cells; 4% FBS, 24hrs, 25 µM",10.5 ± 0.7 ‰
same,CBPI,"Huh6 cells; 4% FBS, 24hrs, 25 µM",1.9 ± 0.1
same,MN (total number of micronuclei),"Huh6 cells; 4% FBS, 24hrs, 25 µM",17.5 ± 2.1 ‰
same,BN-MN (number of micronucleated cells),"Huh6 cells; 4% FBS, 24hrs, 50 µM",26.5 ± 0.7* ‰
same,Bridges,"Huh6 cells; 4% FBS, 24hrs, 50 µM",1.5 ± 0.7 ‰
same,Buds,"Huh6 cells; 4% FBS, 24hrs, 50 µM",24.5 ± 0.7* ‰
same,CBPI,"Huh6 cells; 4% FBS, 24hrs, 50 µM",1.8 ± 0.0
same,MN (total number of micronuclei),"Huh6 cells; 4% FBS, 24hrs, 50 µM",30.0 ± 1.4* ‰
same,BN-MN (number of micronucleated cells),"Huh6 cells; 4% FBS, 24hrs, 100 µM",49.5 ± 2.1* ‰
same,Bridges,"Huh6 cells; 4% FBS, 24hrs, 100 µM",3.0 ± 0.0 ‰
same,Buds,"Huh6 cells; 4% FBS, 24hrs, 100 µM",34.0 ± 1.4* ‰
same,CBPI,"Huh6 cells; 4% FBS, 24hrs, 100 µM",1.9 ± 0.0
same,MN (total number of micronuclei),"Huh6 cells; 4% FBS, 24hrs, 100 µM",49.5 ± 2.1* ‰
same,BN-MN (number of micronucleated cells),"Huh6 cells; 4% FBS, 48hrs, 25 µM",20.0 ± 1.4 ‰
same,Bridges,"Huh6 cells; 4% FBS, 48hrs, 25 µM",0.0 ± 0.0 ‰
same,Buds,"Huh6 cells; 4% FBS, 48hrs, 25 µM",20.5 ± 3.5 ‰
same,CBPI,"Huh6 cells; 4% FBS, 48hrs, 25 µM",1.9 ± 0.1
same,MN (total number of micronuclei),"Huh6 cells; 4% FBS, 48hrs, 25 µM",20.5 ± 0.7 ‰
same,BN-MN (number of micronucleated cells),"Huh6 cells; 4% FBS, 48hrs, 50 µM",20.5 ± 3.5 ‰
same,Bridges,"Huh6 cells; 4% FBS, 48hrs, 50 µM",0.5 ± 0.7 ‰
same,Buds,"Huh6 cells; 4% FBS, 48hrs, 50 µM",22.0 ± 4.2 ‰
same,CBPI,"Huh6 cells; 4% FBS, 48hrs, 50 µM",1.9 ± 0.0
same,MN (total number of micronuclei),"Huh6 cells; 4% FBS, 48hrs, 50 µM",21.5 ± 3.5 ‰
same,BN-MN (number of micronucleated cells),"Huh6 cells; 4% FBS, 48hrs, 100 µM",22.0 ± 1.4 ‰
same,Bridges,"Huh6 cells; 4% FBS, 48hrs, 100 µM",0.5 ± 0.7 ‰
same,Buds,"Huh6 cells; 4% FBS, 48hrs, 100 µM",29.5 ± 0.7* ‰
same,CBPI,"Huh6 cells; 4% FBS, 48hrs, 100 µM",1.8 ± 0.2
same,MN (total number of micronuclei),"Huh6 cells; 4% FBS, 48hrs, 100 µM",24.0 ± 1.4 ‰
same,BN-MN (number of micronucleated cells),Huh6 cells; [2],50.0 ± 2.8*
same,Bridges,Huh6 cells; [2],1.0 ± 1.4
same,Buds,Huh6 cells; [2],50.0 ± 1.4
same,CBPI,Huh6 cells; [2],2.0 ± 0.1
same,MN (total number of micronuclei),Huh6 cells; [2],56.5 ± 2.1*
same,BN-MN (number of micronucleated cells),Huh6 cells; [3],55.0 ± 11.3*
same,Bridges,Huh6 cells; [3],1.5 ± 0.7
same,Buds,Huh6 cells; [3],60.0 ± 7.1*
same,CBPI,Huh6 cells; [3],1.8 ± 0.0
same,MN (total number of micronuclei),Huh6 cells; [3],61 ± 12.7*
same,MN frequencies with 10% serum compared with 4% serum (in words),Huh6 cells; 24 hr treatment,stronger effects
same,Lowest effective concentration (LOEC) in micronucleus experiments,Huh6 cells; Huh6,50.0 µM
same,Lowest effective concentration (LOEC) in micronucleus experiments,HepG2,"25.0 (Majer et al., 2004) μM"
same,Lowest effective concentration (LOEC) in micronucleus experiments,Hep3B,Negative
same,NOEC (highest no observable effect concentration tested),Hep3B,300.0 µM
same,Lowest effective concentration (LOEC) in micronucleus experiments,HepaRG,Negative
same,NOEC (highest no observable effect concentration tested),HepaRG,320.0 µM
